Measured values published in paper PMC12292390, “Discovery of Dietary Plant Flavonols as Novel Potent Inhibitors Targeting DYRK1A Kinase” (Biomolecules, 2025).
“Also recorded” adds a separate entry of the source. Where two headings read alike, the source gives them in different places.

How the values were obtained:
[1] = tested on: HeLa cells; experiment: Cell morphology analysis (microscopy); format: cell-based; conditions: 72 h
Method: (§1) HeLa cells were maintained in high-glucose Dulbecco’s Modified Eagle Medium (DMEM) supplemented with 10% (v/v) fetal bovine serum (FBS) at 37 °C in an incubator with 5% CO2.
HeLa cells were seeded at a density of 1.5 × 10^5 per well in 6-well plates and incubated overnight. Cells were then treated with different concentrations of flavonoids for 72 h. The final concentrations of methanol and DMSO were 4% and 1%, respectively. Morphology changes were observed using an Olympus IX83 (Evident Scientific, Tokyo, Japan) inverted microscope with a 40× objective.

[2] = molecular target: T1, DYRK1A (Homo sapiens, UniProt Q13627); experiment: DYRK1A kinase inhibition assay (ADP-Glo Kinase Assay, DYRKtide substrate); format: biochemical; conditions: for DYRK1A inhibition (in words): at the concentrations tested;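 for all read-outs here: DYRKtide phosphorylation read out by luminescence, reaction run in Tris buffer pH 7.5 with MgCl2 and BSA, containing 1% DMSO or methanol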
T1 construct: The DNA encoding DYRK1A with a non-cleavable N-terminal MBP-tag was synthesized by Genscript; made in house; host or cells: E. coli BL21 (DE3) RIPL

[3] = tested on: HeLa cells; experiment: Cell viability assay (WST-8); format: cell-based; conditions: 48 h treatment, WST-8, various concentrations
Method: as §1
HeLa cells were seeded at a density of 3.3 × 10^3 per well in 96-well plates and incubated overnight. Cells were then treated with various concentrations of flavonoids. After 48 h incubation, 10 μL of WST-8 reagent (ab228554, Abcam, Waltham, MA, USA) was added to each well and incubated for 1 h at 37 °C. Absorbance was measured at 460 nm using a microtiter plate reader (SpectraMax iD3, Molecular Devices, LLC., San Jose, CA, USA).

[4] = ref ChemSpider, cited from earlier work; for LogP: ACD/LogP; for HBA (hydrogen bond acceptor number): first figure of HBA/HBD; for PSA: polar surface area; for HBD (hydrogen bond donor number): second figure of HBA/HBD
[5] = ADP-Glo, 100 μM ATP, 1 mg/mL DYRKtide, 30 nM DYRK1A, 1 h room temperature, read-out: IC50

Row | Compound | morphological changes in HeLa cells ([1]; 100 μM, 1% DMSO) | IC50 [2, 5] [µM] | DYRK1A inhibition (in words) [2] | cytotoxicity / cell viability of HeLa cells (in words) [3] | LogP [4] | HBA (hydrogen bond acceptor number) [4] | PSA [4] [Å^2] | HBD (hydrogen bond donor number) [4] | DYRK1A inhibition (in words) ([2]; listed as kaempferide) | morphological changes in HeLa cells ([1]; 40 μM, 4% methanol) | cytotoxicity / cell viability of HeLa cells (in words) ([3]; listed as fisetin) | DYRK1A inhibition (in words) ([2]; listed as apigenin) | IC50 [2] [µM]
1 | O=c1c(O)c(-c2ccc(O)cc2)oc2cc(O)cc(O)c12 [Kaempferol, 3,5,7,4′-tetrahydroxyflavone] | significant elongation and shrinkage; also recorded: elongated morphology | 0.296 | moderate activity | significant cytotoxicity; also recorded: significantly reduced; also recorded: significant cytotoxic and pro-apoptotic effects | 2.05 | 6 | 107 | 4 |  |  |  |  | 
2 | COc1ccc(-c2oc3cc(O)cc(O)c3c(=O)c2O)cc1 [Kaempferide] |  | 3.52 | effective inhibition |  | 2.74 | 6 | 96 | 3 | only weak inhibition; also recorded: low inhibition of kinase |  |  |  | 
3 | O=C1C[C@@H](c2ccc(O)cc2)Oc2cc(O)cc(O)c21 [Naringenin] |  |  | only weak inhibition |  | 3.19 | 5 | 87 | 3 |  |  |  |  | 
4 | O=c1c(O)c(-c2ccc(O)cc2O)oc2cc(O)cc(O)c12 [Morin] |  | 0.478 |  | slight cytotoxicity effect; also recorded: significantly reduced | 1.61 | 7 | 127 | 5 |  | clear apoptotic features, including cell shrinkage, detachment, and the formation of apoptosis bodies; also recorded: classic apoptosis features |  |  | 
5 | O=c1c(O)c(-c2ccccc2)oc2ccc(O)cc12 [3,6-Dihydroxyflavone] |  |  | only weak inhibition; also recorded: low inhibition of kinase |  | 3.64 | 4 | 67 | 2 |  |  |  |  | 
6 | O=c1c(O)c(-c2ccc(O)c(O)c2)oc2cc(O)cc(O)c12 [Quercetin, reference compound] |  | 0.738 |  |  | 2.08 | 7 | 127 | 5 |  |  |  |  | 
7 | O=C1c2c(O)cc(O)cc2O[C@H](c2cc(O)c(O)c(O)c2)[C@H]1O [Dihydromyricetin] |  |  | no detectable activity; also recorded: lack of activity |  | 1.23 | 8 | 148 | 6 |  |  |  |  | 
8 | O=c1c(O)c(-c2ccc(O)c(O)c2)oc2cc(O)ccc12 [Fisetin] |  | 0.149 |  | slight cytotoxicity effect | 2.52 | 6 | 107 | 4 |  | clear apoptotic features, including cell shrinkage, detachment, and the formation of apoptosis bodies; also recorded: classic apoptosis features | significantly reduced |  | 
9 | O=c1c(O)c(-c2cc(O)c(O)c(O)c2)oc2cc(O)cc(O)c12 [Myricetin] |  | 0.633 |  |  | 2.11 | 8 | 148 | 6 |  |  |  |  | 
10 | O=c1cc(-c2ccc(O)cc2)oc2cc(O)cc(O)c12 [Apigenin] |  | 1.02 | effective inhibition |  | 3.04 | 5 | 87 | 3 |  |  |  | only weak inhibition | 
11 | O=c1c(O)c(-c2ccccc2)oc2ccccc12 [3-Hydroxyflavone] |  |  | no detectable activity; also recorded: low inhibition of kinase |  | 3.76 | 3 | 47 | 1 |  |  |  |  | 
12 | COc1cc(-c2oc3cc(O)cc(O)c3c(=O)c2O)ccc1O [Isorhamnetin] |  |  | moderate activity | minimal cytotoxicity | 1.76 | 7 | 116 | 4 |  | clear apoptotic features, including cell shrinkage, detachment, and the formation of apoptosis bodies; also recorded: classic apoptosis features |  |  | 0.418
13 | O=c1c(O)c(-c2ccccc2)oc2cc(O)ccc12 [3,7-Dihydroxyflavone] |  |  | only weak inhibition; also recorded: low inhibition of kinase |  | 3.27 | 4 | 67 | 2 |  |  |  |  | 
14 | O=c1cc(-c2ccc(O)c(O)c2)oc2cc(O)cc(O)c12 [Luteolin] |  | 0.798 |  |  | 2.40 | 6 | 107 | 4 |  |  |  |  | 
